Where two headings read alike, the source gives them in different places.
What was measured:
Human recombinant sEH = molecular target: T1, Human recombinant sEH (Homo sapiens, UniProt P34913); assay: sEH activity assay (PHOME fluorescence, cell-free); format: biochemical
T1 construct: made in house
T1 sequence (P34913 1-555): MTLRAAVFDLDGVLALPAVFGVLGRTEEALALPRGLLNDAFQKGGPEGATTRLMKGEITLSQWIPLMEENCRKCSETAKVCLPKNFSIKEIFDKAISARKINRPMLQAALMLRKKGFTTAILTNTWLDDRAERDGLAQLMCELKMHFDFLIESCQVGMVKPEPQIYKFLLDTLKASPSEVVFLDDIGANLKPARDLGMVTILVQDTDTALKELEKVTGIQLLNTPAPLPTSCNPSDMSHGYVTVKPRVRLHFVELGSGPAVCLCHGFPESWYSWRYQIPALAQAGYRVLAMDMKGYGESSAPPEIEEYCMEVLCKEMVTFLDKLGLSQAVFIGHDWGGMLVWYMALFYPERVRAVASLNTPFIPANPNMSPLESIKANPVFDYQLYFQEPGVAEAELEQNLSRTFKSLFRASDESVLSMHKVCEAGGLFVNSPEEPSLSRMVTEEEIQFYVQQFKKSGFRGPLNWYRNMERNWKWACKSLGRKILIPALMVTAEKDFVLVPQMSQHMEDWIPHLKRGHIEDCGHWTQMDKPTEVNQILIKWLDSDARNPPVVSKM
Procedure: Human recombinant sEH was expressed and purified as published.[23] Isolated sEH was diluted in 25 mM Tris buffer (pH 7) containing 0.1 mg/mL BSA to a final protein concentration of 0.5 µg/mL. Preincubation with test compounds or 0.1% vehicle (DMSO) at room temperature for 10 min was followed by stimulation with 50 µM PHOME at RT for 60 min. Reactions were stopped with 200 mM ZnSO4 and fluorescence was subsequently detected at λem 465 nm and λex 330 nm. If required, possible fluorescence of the compounds was subtracted from the read-out.

[1] = molecular target: T2, FLAP (5-LOX product formation) (Homo sapiens, UniProt P20292); assay: FLAP-dependent 5-LOX product formation in human neutrophils; format: cell-based; settings: for IC50: human neutrophils, A23187 stimulated, read-out: FLAP (5-LOX product formation) IC50 ± SEM
T2 construct: Human neutrophils were isolated from buffy coats of healthy adult fasted donors; endogenous in cells; host or cells: primary human neutrophils from buffy coats
T2 sequence (P20292 1-161): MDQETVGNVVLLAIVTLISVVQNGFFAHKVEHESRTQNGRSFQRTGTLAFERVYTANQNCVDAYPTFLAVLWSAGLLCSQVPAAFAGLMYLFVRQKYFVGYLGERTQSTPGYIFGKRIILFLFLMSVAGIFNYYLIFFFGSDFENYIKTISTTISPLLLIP
Procedure: Human neutrophils were isolated from buffy coats of healthy adult fasted donors as described recently.[32] […] 200 ng of internal PGB1 standard was added to the acidified samples and solid-phase-extraction using C18 RP-columns (100 mg, UCT, Bristol, PA, USA) was performed. Samples were eluted with methanol and 5-LOX products including 5-HpETE, and the corresponding alcohol 5-HETE, LTB4, and all-trans-isomers of LTB4 were analysed by RP-HPLC with a C-18 Radial-PAK column (Waters, Eschborn, Germany) as described.[33]

[2] = lead compound, stated without reference; cited from earlier work
[3] = set-up: method as in PMID 28218273, PMID 26882208, PMID 28839250; settings: cited from earlier work
LT biosynthesis = settings: cited from earlier work
[4] = molecular target: T2, FLAP (5-LOX product formation); settings: neutrophils; cited from earlier work
[5] = read-out: sEH IC50 ± SEM, human recombinant sEH, cell-free

SMILES	IC50 (Human recombinant sEH)	IC50 [1]	melting point	other results
Cc1cc(NC(=O)Nc2ccc(Cl)c(Cl)c2)ccc1OCc1nc2ccccc2n1C(=O)OC(C)(C)C [Compound 5c, tert-butyl-2-((4-(3-(3,4-dichlorophenyl)ureido)-2-methylphenoxy)methyl)-1H-benzo[d]imidazole-1-carboxylate]	0.0007 ± 0.0001 µM	> 10 µM	145 to 146 °C	
Cc1cc(OCc2nc3ccccc3n2C(=O)OC(C)(C)C)ccc1NC(=O)Nc1ccc(Cl)c(Cl)c1 [Compound 5a, tert-butyl-2-((4-(3-(3,4-dichlorophenyl)ureido)-3-methylphenoxy)methyl)-1H-benzo[d]imidazole-1-carboxylate]	0.0007 ± 0.0001 µM	3.7 ± 0.9 µM	261 to 263 °C	
Cc1cc(OCc2nc3ccccc3[nH]2)ccc1NC(=O)Nc1ccc(Cl)c(Cl)c1 [Compound 6a, 1-(4-((1H-benzo[d]imidazol-2-yl)methoxy)-2-methylphenyl)-3-(3,4-dichlorophenyl)urea]		0.7 ± 0.1 µM	245 to 246 °C	IC50 (Human recombinant sEH; [5]): 0.0569 ± 0.0194 µM
O=C(Nc1ccc(OCc2nc3ccccc3[nH]2)cc1)Nc1ccc(Cl)c(Cl)c1 [Compound 6b, 1-(4-((1H-benzo[d]imidazol-2-yl)methoxy)phenyl)-3-(3,4-dichlorophenyl)urea]	0.0105 ± 0.0019 µM	0.6 ± 0.1 µM	272 °C	
CC(C)(C)OC(=O)n1c(COc2ccc(NC(=S)Nc3ccc(Cl)c(Cl)c3)cc2)nc2ccccc21 [Compound 5e, tert-butyl 2-((4-(3-(3,4-dichlorophenyl)thioureido)phenoxy)methyl)-1H-benzo[d]imidazole-1-carboxylate]	0.0191 ± 0.0072 µM	> 10 µM	165 to 167 °C	
Cc1cc(NC(=O)Nc2ccc(Cl)c(Cl)c2)ccc1OCc1nc2ccccc2[nH]1 [Compound 6c, 1-(4-((1H-benzo[d]imidazol-2-yl)methoxy)-3-methylphenyl)-3-(3,4-dichlorophenyl)urea]	0.0049 ± 0.001 µM	0.4 ± 0.01 µM	228 to 230 °C	
Cc1cc(NC(=S)Nc2ccc(Cl)c(Cl)c2)ccc1OCc1nc2ccccc2n1C(=O)OC(C)(C)C [Compound 5f, tert-butyl 2-((4–(3-(3,4-dichlorophenyl)thioureido)-2-methylphenoxy)methyl)-1H-benzo[d]imidazole-1-carboxylate]	0.0175 ± 0.0127 µM	> 10 µM	169 to 172 °C	
CC(C)(C)OC(=O)n1c(COc2ccc(NC(=O)Nc3ccc(Cl)c(Cl)c3)cc2)nc2ccccc21 [Compound 5b, tert-butyl 2-((4-(3-(3,4-dichlorophenyl)ureido)phenoxy)methyl)-1H-benzo[d]imidazole-1-carboxylate]	0.00063 ± 0.0001 µM	> 10 µM	262 to 264 °C	
Cc1cc(OCc2nc3ccccc3[nH]2)ccc1NC(=S)Nc1ccc(Cl)c(Cl)c1 [Compound 6d, 1-(4-((1H-benzo[d]imidazol-2-yl)methoxy)-2-methylphenyl)-3-(3,4-dichlorophenyl)thiourea]	0.223 ± 0.0858 µM	0.6 ± 0.1 µM	122 to 124 °C	
Cc1cc(NC(=S)Nc2ccc(Cl)c(Cl)c2)ccc1OCc1nc2ccccc2[nH]1 [Compound 6f, 1-(4-((1H-benzo[d]imidazol-2-yl)methoxy)-3-methylphenyl)-3-(3,4-dichlorophenyl)thiourea]	0.772 ± 0.169 µM	0.75 ± 0.17 µM	167 to 168 °C	
S=C(Nc1ccc(OCc2nc3ccccc3[nH]2)cc1)Nc1ccc(Cl)c(Cl)c1 [Compound 6e, 1-(4-((1H-benzo[d]imidazol-2-yl)methoxy)phenyl)-3-(3,4-dichlorophenyl)thiourea]	0.271 ± 0.0584 µM	0.5 ± 0.1 µM	160 to 162 °C	
Cc1cc(OCc2nc3ccccc3n2C(=O)OC(C)(C)C)ccc1NC(=S)Nc1ccc(Cl)c(Cl)c1 [Compound 5d, tert-butyl 2-((4-(3-(3,4-dichlorophenyl)thioureido)-3-methylphenoxy)methyl)-1H-benzo[d]imidazole-1-carboxylate]		> 10 µM	172 °C	sEH activity (in words) (Human recombinant sEH): inactive; IC50 (Human recombinant sEH; [5]): > 10 µM; FLAP activity (in words) [1]: Inactive
Cc1cc(OCc2nc3ccccc3s2)ccc1NC(=O)Nc1ccc(Cl)c(Cl)c1 [Diflapolin]				solubility [2]: poor solubility; acute cytotoxicity [3]: no acute cytotoxicity; LT biosynthesis in vivo (LT biosynthesis): efficiently inhibits LT biosynthesis in vivo; anti-inflammatory activity in mouse (LT biosynthesis; mouse): strong anti-inflammatory activity
CC(C)c1ccc2c(c1)c(SC(C)(C)C)c(CC(C)(C)C(=O)O)n2Cc1ccc(Cl)cc1 [MK-886]				IC50 [4]: 0.01 to 0.014 µM

From PMC9518245 (Journal of Enzyme Inhibition and Medicinal Chemistry, 2022)
